Columns and labels:
Format in all cases: in vivo
[1] = test system: Echinochloa crus-galli (ECHCG); assay: Herbicidal pre-emergence action, section A (Table A3); conditions: visual grading after ca. 3 weeks vs untreated controls; for pest or weed control at 320 g/ha: application rate 320 g/ha
How it was run: (§1)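 Sandy loam pots, seeds covered with soil, treated on the soil surface with aqueous WP or EC preparations containing 0.5% additive (600 l/ha). Visual damage rating after ca. 3 weeks in greenhouse; scale 0% (as control) to 100% (plants died off).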

Kochia scoparia (KCHSC) [2] = assay: Herbicidal pre-emergence action, section A (Table A4); conditions: visual grading after ca. 3 weeks vs untreated controls
How it was run: as §1

Kochia scoparia (KCHSC) [3] = assay: Herbicidal post-emergence action, section B (Table B4); conditions: visual rating about 3 weeks after treatment vs untreated controls
How it was run: (§2)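 Under optimum greenhouse conditions, sandy-loam-grown weeds at the one-leaf stage are sprayed with aqueous suspension or emulsion carrying 0.5% additive, 600 liters per hectare. About 3 weeks later, visual percent activity is scored relative to untreated controls.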

Lolium rigidum (LOLRI) = assay: Herbicidal post-emergence action, section B (Table B5); conditions: application rate 1280 g/ha, visual rating about 3 weeks after treatment vs untreated controls; for pest or weed control at 1280 g/ha: Lolium rigidum, post-emergence, 504 h, read-out: post-emergence activity against LOLRI in %
Description: Seeds of mono- and dicotyledonous weed plants were placed in plastic pots in sandy loam soil (doubly sown with in each case one species of mono- or dicotyledonous weed plants per pot), covered with soil and cultivated in a greenhouse under controlled growth conditions. 2 to 3 weeks after sowing, the test plants were treated at the one-leaf stage. The compounds of the invention, formulated in the form of wettable powders (WP) or as emulsion concentrates (EC), were applied onto the green parts of the plants as aqueous suspension or emulsion with addition of 0.5% additive at a water application rate of 600 liters per hectare (converted). After the test plants had been kept in the greenhouse under optimum growth conditions for about 3 weeks, the activity of the preparations was rated visually in comparison to untreated controls. For example, 100% activity=the plants have died, 0% activity=like control plants.

[4] = test system: Polygonum convolvulus (POLCO); assay: Herbicidal pre-emergence action, section C (Table C7); conditions: visual grading after ca. 3 weeks; for pest or weed control at 320 g/ha: application rate 320 g/ha
From the text: (§3) Seeds of mono- and dicotyledonous weed plants and crop plants were sown, in plastic or organic planting pots, in sandy loam and covered with soil. The compounds according to the invention, formulated in the form of wettable powders (WP) or as emulsifiable concentrates (EC), were applied to the surface of the covering soil as aqueous suspension or emulsion, with the addition of 0.5% of an additive, at an application rate of 600 l of water/ha (converted). Following treatment, the pots were placed in a greenhouse and kept under optimum growth conditions for the test plants. The visual grading of the damage to the test plants was carried out after ca. 3 weeks in comparison to untreated controls (herbicidal effect in percent (%): 100% effect=plants have died off, 0% effect=as control plants).

Zea mays (ZEAMX) = assay: Pre-emergence effects on crop plants, section D (Table D1); conditions: visual grading after ca. 3 weeks
How it was run: (§4)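 Read-out: visual percent injury versus untreated controls at ca. 3 weeks (0% as control, 100% dead). Treatment: aqueous WP/EC suspension or emulsion with 0.5% additive, 600 l/ha, on soil covering seeds in sandy loam, at 320 g/ha or below, under optimum greenhouse conditions.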

[5] = test system: Triticum aestivum (TRZAS); assay: Pre-emergence effects on crop plants, section D (Table D2); conditions: visual grading after ca. 3 weeks
How it was run: as §4

[6] = test system: Abutilon theophrasti (ABUTH); assay: Herbicidal pre-emergence action, section A (Table A1); conditions: Abutilon theophrasti, pre-emergence, 504 h; application rate 1280 g/ha; visual grading after ca. 3 weeks vs untreated controls; read-out: pre-emergence activity against ABUTH in %
From the text: as §3, with “plants” for “plants and crop plants”, “sown” for “sown,”, “pots (double sowings with one species of mono- and one species of dicotyledonous weed plants per pot),” for “or organic planting pots,”, “loam,” for “loam”, “water per hectare” for “water/ha”

Veronica persica (VERPE) = assay: Herbicidal post-emergence action, section B (Table B10); conditions: Veronica persica, post-emergence, 504 h, visual rating about 3 weeks after treatment vs untreated controls, read-out: post-emergence activity against VERPE in %; for pest or weed control at 320 g/ha: application rate 320 g/ha
How it was run: as §2

[7] = test system: Alopecurus myosuroides (ALOMY); assay: Herbicidal pre-emergence action, section C (Table C2); conditions: Alopecurus myosuroides, pre-emergence, 504 h, visual grading after ca. 3 weeks vs untreated controls, read-out: pre-emergence activity against ALOMY in %; for pest or weed control at 80 g/ha: application rate 80 g/ha; for pest or weed control at 320 g/ha: application rate 320 g/ha
From the text: as §3

[8] = test system: Matricaria inodora (MATIN); assay: Herbicidal pre-emergence action, section C (Table C6); conditions: Tripleurospermum inodorum, pre-emergence, 504 h; application rate 320 g/ha; visual grading after ca. 3 weeks; read-out: pre-emergence activity against MATIN in %
From the text: as §3

[9] = test system: Abutilon theophrasti (ABUTH); assay: Herbicidal pre-emergence action, section C (Table C1); conditions: Abutilon theophrasti, pre-emergence, 504 h; application rate 320 g/ha; visual grading after ca. 3 weeks vs untreated controls; read-out: pre-emergence activity against ABUTH in %
From the text: as §3

[10] = Echinochloa crus-galli, pre-emergence, 504 h, read-out: pre-emergence activity against ECHCG in %
[11] = Bassia scoparia, post-emergence, 504 h, application rate 320 g/ha, read-out: post-emergence activity against KCHSC in %
[12] = Fallopia convolvulus, pre-emergence, 504 h, read-out: pre-emergence activity against POLCO in %
[13] = Bassia scoparia, pre-emergence, 504 h, application rate 320 g/ha, read-out: pre-emergence activity against KCHSC in %

Row | Structure (SMILES) | pre-emergence activity against ZEAMX in % (crop plant damage) (Zea mays (ZEAMX); application rate 320 g/ha) | pre-emergence activity against TRZAS in % (crop plant damage) ([5]; application rate 320 g/ha) | pest or weed control at 1280 g/ha [6] | pest or weed control at 320 g/ha [1, 10] | pest or weed control at 320 g/ha (Kochia scoparia (KCHSC) [3]; [11]) | pest or weed control at 320 g/ha (Veronica persica (VERPE)) | pest or weed control at 80 g/ha [7] | pest or weed control at 320 g/ha [4, 12] | pre-emergence activity against ZEAMX in % (crop plant damage) (Zea mays (ZEAMX); application rate 80 g/ha) | pre-emergence activity against TRZAS in % (crop plant damage) ([5]; application rate 80 g/ha) | pest or weed control at 320 g/ha (Kochia scoparia (KCHSC) [2]; [13]) | pest or weed control at 1280 g/ha (Lolium rigidum (LOLRI)) | pest or weed control at 320 g/ha [8] | pest or weed control at 320 g/ha [7] | also measured
1 | Cc1cc2c(nc1-c1cccc(C)c1F)NCS2 [Example I-113] | 0% | 10% |  |  |  |  |  |  |  |  |  |  |  |  | pre-emergence activity against ECHCG in % ([1]; application rate 1280 g/ha): 100%; pre-emergence activity against KCHSC in % (Kochia scoparia (KCHSC) [2]; application rate 320 g/ha): 90%; post-emergence activity against KCHSC in % (Kochia scoparia (KCHSC) [3]; application rate 320 g/ha): 90%; post-emergence activity against LOLRI in % (Lolium rigidum (LOLRI)): 90%; pre-emergence activity against POLCO in % ([4]; application rate 80 g/ha): 90%
2 | CCS(=O)(=O)N1C[S+]([O-])c2cc(C)c(-c3ccccc3C)nc21 (stereo not drawn) [Example I-074] |  |  | 90% | 100% | 90% | 90% | 80% | 90% | 0% | 0% |  |  |  |  | pest or weed control at 1280 g/ha (Kochia scoparia (KCHSC) [2]; Bassia scoparia, pre-emergence, 504 h, application rate 1280 g/ha, read-out: pre-emergence activity against KCHSC in %): 100%
3 | Cc1cc2c(nc1-c1cccc(F)c1F)NCS2 [Example I-029, 5-(2,3-difluorophenyl)-6-methyl-2,3-dihydro[1,3]thiazolo[4,5-b]pyridine] |  |  | 90% | 100% | 90% |  | 100% | 80% |  |  | 100% | 90% | 80% |  | pest or weed control at 1280 g/ha (Veronica persica (VERPE); application rate 1280 g/ha): 90%
4 | CC(=O)N1CSc2cc(Br)c(-c3ccccc3Cl)nc21 [Example I-055, 1-[6-bromo-5-(2-chlorophenyl)[1,3]thiazolo[4,5-b]pyridin-3(2H)-yl]ethanone] | 0% |  | 90% |  |  |  |  | 80% |  | 0% | 90% |  |  | 80% | pest or weed control at 1280 g/ha ([1]; Echinochloa crus-galli, pre-emergence, 504 h, application rate 1280 g/ha, read-out: pre-emergence activity against ECHCG in %): 100%; pest or weed control at 1280 g/ha (Kochia scoparia (KCHSC) [3]; Bassia scoparia, post-emergence, 504 h, application rate 1280 g/ha, read-out: post-emergence activity against KCHSC in %): 90%; pest or weed control at 320 g/ha [9]: 80%
5 | Clc1ccccc1-c1nc2c(cc1Br)SCN2 [Example I-041, 6-bromo-5-(2-chlorophenyl)-2,3-dihydro[1,3]thiazolo[4,5-b]pyridine] |  | 20% | 90% | 100% | 90% | 90% |  |  | 0% |  | 90% | 90% |  | 80% | pest or weed control at 80 g/ha ([4]; Fallopia convolvulus, pre-emergence, 504 h, application rate 80 g/ha, read-out: pre-emergence activity against POLCO in %): 80%
6 | Fc1ccccc1-c1nc2c(cc1Br)SCN2 [Example I-001, 6-bromo-5-(2-fluorophenyl)-2,3-dihydro[1,3]thiazolo[4,5-b]pyridine] |  |  |  |  |  |  |  | 80% | 10% |  |  |  | 90% | 100% | 

Reference: patent US20240381872A1, “SUBSTITUTED 2,3-DIHYDRO[1,3]THIAZOLO[4,5-B]PYRIDINES, SALTS THEREOF AND THEIR USE AS HERBICIDALLY ACTIVE SUBSTANCES” (BAYER AKTIENGESELLSCHAFT, priority 2021, published 2024)
